According to publication PMC6272192, “Synthesis and Biological Evaluation of N-Alkyl-3-(alkylamino)-pyrazine-2-carboxamides” (Molecules, 2015):
pIC50: −log10 of the molar value. Converted amounts (≈) assume the structure as drawn. Read-outs that look alike come from different tables or passages of the source.

How the values were obtained:
[1] = system: M. tuberculosis H37Rv; assay: in vitro antimycobacterial activity, microdilution panel method; format: cell-based, Mycobacterium tuberculosis; settings: for MIC: Mycobacterium tuberculosis
[2] = system: photosystem 2 photosynthetic electron transport (PET) in spinach chloroplasts; assay: inhibition of photosynthetic electron transport (PET) in spinach chloroplasts (Hill reaction, DCPIP); format: biochemical, Spinacia oleracea L.; settings: for PET-inhibiting activity (in words) / pIC50: spinach chloroplasts
Protocol: Chloroplasts were prepared from spinach (Spinacia oleracea L.) according to Masarovicova and Kralova. The inhibition of photosynthetic electron transport (PET) in spinach chloroplasts was determined spectrophotometrically (Genesys 6, Thermo Electron Scientific Instruments, Madison, WI, USA), using an artificial electron acceptor 2,6-dichlorophenol-indophenol (DCPIP) according to Kralova et al., and the rate of photosynthetic electron transport (PET) was monitored as a photoreduction of DCPIP. The measurements were carried out in phosphate buffer (0.02 mol/L, pH 7.2) containing sucrose (0.4 mol/L), MgCl2 (0.005 mol/L) and NaCl (0.015 mol/L). The chlorophyll content was 30 mg/L in these experiments and the samples were irradiated (~100 W/m^2 with 10 cm distance) with a halogen lamp (250 W) using a 4 cm water filter to prevent warming of the samples (suspension temperature 22 °C). The studied compounds were dissolved in DMSO due to their limited water solubility. […] The inhibitory efficiency of the studied compounds was expressed by IC50 values, i.e., by molar concentration of the compounds causing 50% PET inhibition relative to the untreated control.

[3] = determination of lipophilicity by HPLC (log k); settings: HPLC capacity factor, C18 column, MeOH 70% / H2O 30%
Excerpt: Instrumentation: Agilent Technologies 1200 SL liquid chromatograph with Diode-array Detector SL G1315C (Agilent Technologies Inc., Colorado Springs, CO, USA); pre-column ZORBAX XDB-C18 5 μm, 4 × 4 mm, Part No. 7995118-504 (Agilent Technologies Inc.) and column ZORBAX Eclipse XDB-C18 5 μm, 4.6 × 250 mm, Part No. 7995118-585 (Agilent Technologies Inc.). The separation process was controlled by Agilent ChemStation, version B.04.02 extended by spectral module (Agilent Technologies Inc.). Mobile phase consisted of MeOH (HPLC grade, 70%) and H2O (HPLC-Milli-Q Grade, 30%). Conditions: Flow rate 1.0 mL/min, sample injection volume 20 μL, column temperature 30 °C, detection wavelength 210 nm, monitor wavelength 270 nm. Retention times (tR) were measured in minutes. The dead time of the system (tD) was determined as the retention time of KI methanol solution. Capacity factors k for individual compounds were calculated according to the formula k = (tR − tD)/tD. Log k, calculated from the capacity factor k, is used as the lipophilicity index converted to log scale.

[4] = system: M. tuberculosis H37Rv; settings: previously prepared 3-alkylaminopyrazine-2-carboxamides; cited from earlier work
[5] = system: Trichophyton mentagrophytes; assay: in vitro antifungal activity, microdilution broth method; format: cell-based; settings: for MIC: Trichophyton mentagrophytes
Protocol: Antifungal evaluation was performed using microdilution broth method against 8 fungal strains (Candida albicans ATCC 44859, C. tropicalis 156, C. krusei E28, C. glabrata 20/I, Trichosporon asahii 1188, Aspergillus fumigates 231, Absidia corymbifera 272 and Trichophyton mentagrophytes 445). Compounds were dissolved in DMSO and diluted in a twofold manner with RPMI 1640 medium with glutamine buffered to pH 7.0 (3-morpholinopropane-1-sulfonic acid). […] Static incubation was performed in the dark and humid, at 35 °C for 24 and 48 h (respectively 72 and 120 h for Trichophyton mentagrophytes). The MIC was defined as 80% inhibition of control (50% IC for filament fungi). Drug-free controls were included. The standards were amphotericin B, voriconazole, nystatin and fluconazole.

[6] = system: Staphylococcus epidermidis; assay: in vitro antibacterial activity, microdilution broth method; format: cell-based
Protocol: Microdilution broth method. Antibacterial evaluation was performed against bacterial strains from Czech Collection of Microorganisms (Brno, Czech Republic) (Staphylococcus aureus CCM 4516/08, Escherichia coli CCM 4517, Pseudomonas aeruginosa CCM 1961) or clinical isolates from Department of Clinical Microbiology, University Hospital and Faculty of Medicine in Hradec Králové, Charles University in Prague, Czech Republic (Staphylococcus aureus H 5996/08-methicilin resistant (MRSA), Staphylococcus epidermidis H 6966/08, Enterococcus sp. J 14365/08, Klebsiella pneumoniae D 11750/08, Klebsiella pneumoniae J 14368/08-ESBL positive). All strains were subcultured on Mueller-Hinton agar (MHA) (Difco/Becton Dickinson, Detroit, MI, USA) at 35 °C and maintained on the same medium at 4 °C. The compounds were dissolved in DMSO, and the antibacterial activity was determined in Mueller-Hinton liquid broth (Difco/Becton Dickinson), buffered to pH 7.0. Controls consisted of medium and DMSO alone. […] The standards were neomycin, bacitracin, penicillin G, ciprofloxacin and phenoxymethylpenicilin.

[7] = system: photosystem 2 photosynthetic electron transport (PET) in spinach chloroplasts; set-up: method as in doi:10.3139/113.110079; settings: literature surfactants; read-out: IC50 related to PET inhibition; cited from earlier work
[8] = system: Vero cells; assay: in vitro cytotoxicity assay (MCC); format: cell-based, African Green Monkey; settings: highest tested concentration 100 µmol/L
[9] = 336 h, Middlebrook 7H9, Alamar Blue after 14 days, read-out: MIC M. tuberculosis
[10] = DCPIP photoreduction, read-out: IC50 (PET-inhibiting activity)
[11] = Middlebrook 7H9, Alamar Blue after 14 days

Row | SMILES | MIC [1, 9] [µg/mL] | log k [3] | pIC50 [2, 10] | other results
1 | CNC(=O)c1nccnc1Cl [Compound 1, 3-Chloro-N-methylpyrazine-2-carboxamide] | > 100 | −0.747 |  | PET-inhibiting activity (in words) [2]: inactive
2 | CCNc1nccnc1C(=O)NC [Compound 10, 3-(Ethylamino)-N-methylpyrazine-2-carboxamide] | > 100 | −0.052 |  | 
3 | CCCCCCCCNc1nccnc1C(N)=O [3-octylaminopyrazine-2-carboxamide] |  |  |  | MIC [4]: 50 µg/mL (≈ 200 µM)
4 | CCCCCCCNc1nccnc1C(=O)NC [Compound 15, 3-(Heptylamino)-N-methylpyrazine-2-carboxamide] | 25 | 1.118 | 4.19 | MIC [5]: 125 µM (≈ 31.3 µg/mL); MIC [6]: 250 µM (≈ 62.6 µg/mL)
5 | CCNC(=O)c1nccnc1NCC [Compound 18, N-Ethyl-3-(ethylamino)pyrazine-2-carboxamide] | > 100 | 0.163 |  | PET-inhibiting activity (in words) [2]: not active
6 | CCCCCNc1nccnc1C(=O)NCC [Compound 21, N-Ethyl-3-(pentylamino)pyrazine-2-carboxamide] | 50 | 0.855 | 3.52 | MIC M. tuberculosis [1, 11]: 50 µg/mL (≈ 212 µM); MIC [5]: 250 µM (≈ 59.1 µg/mL); IC50 (PET) fold higher than that of compound 14 ([2]; ratio to IC50 of 14): 2.4 fold
7 | CCCNc1nccnc1C(=O)NCC [Compound 19, N-Ethyl-3-(propylamino)pyrazine-2-carboxamide] | > 100 | 0.382 | 2.69 | MIC [6]: 250 µM (≈ 52.1 µg/mL); IC50 (PET) fold higher than that of compound 12 ([2]; ratio to IC50 of 12): 3.9 fold
8 | CCCNc1nccnc1C(=O)NC [Compound 11, N-Methyl-3-(propylamino)pyrazine-2-carboxamide] | > 100 | 0.166 |  | 
9 | CCCCCCCCC[N+](C)(C)CCNC(=O)CCC(=O)NCC[N+](C)(C)CCCCCCCCC [3,8-diaza-4,7-dioxodecane-1,10-diylbis(nonyldimethyl)ammonium bromide] |  |  |  | pIC50 [7]: 2.76
10 | CCCCCCNc1nccnc1C(=O)NC [Compound 14, 3-(Hexylamino)-N-methylpyrazine-2-carboxamide] | 25 | 0.876 | 3.90 | MIC M. tuberculosis [1, 11]: 25 µg/mL (≈ 106 µM); MIC [5]: 250 µM (≈ 59.1 µg/mL)
11 | CCCCNc1nccnc1C(=O)NCC [Compound 20, 3-(Butylamino)-N-ethylpyrazine-2-carboxamide] | > 100 | 0.617 | 2.96 | 
12 | CNC(=O)c1nccnc1NC [Compound 9, N-Methyl-3-(methylamino)pyrazine-2-carboxamide] | > 100 | −0.279 | 2.25 | 
13 | CCCNC(=O)c1nccnc1NCCC [Compound 25, N-Propyl-3-(propylamino)pyrazine-2-carboxamide] | > 100 | 0.600 | 2.89 | 
14 | CN(C)CCNC(=O)C(=O)NCCN(C)C [N,N'-bis(2-dimethylaminoethyl)ethanediamide] |  |  |  | pIC50 [7]: 2.40
15 | CCNC(=O)c1nccnc1Cl [Compound 2, 3-Chloro-N-ethylpyrazine-2-carboxamide] | > 100 | −0.591 |  | PET-inhibiting activity (in words) [2]: inactive
16 | CCCCCCCNc1nccnc1C(N)=O [3-heptyamino-] |  |  |  | MIC [4]: 50 µg/mL (≈ 212 µM)
17 | CCCNC(=O)c1nccnc1Cl [Compound 3, 3-Chloro-N-propylpyrazine-2-carboxamide] | > 100 | −0.414 |  | PET-inhibiting activity (in words) [2]: inactive

Row | SMILES | MIC [1, 9] [µg/mL] | log k [3] | pIC50 [2, 10] | other results
18 | CCCCCCCNC(=O)c1nccnc1NCCCCCCC [Compound 29, N-Heptyl-3-(heptylamino)pyrazine-2-carboxamide] | > 100 | 2.503 | 2.95 | 
19 | CN(C)C(=O)Nc1ccc(Cl)c(Cl)c1 [DCMU, 3-(3,4-dichlorophenyl)-1,1-dimethylurea, reference compound] |  |  | 5.70 | pIC50 ([2]; read-out: IC50 (PET inhibition, Hill reaction)): ~5.72
20 | CCCCCCNC(=O)c1nccnc1NCCCCCC [Compound 28, N-Hexyl-3-(hexylamino)pyrazine-2-carboxamide] | > 100 | 2.041 | 3.57 | minimum compound concentration (MCC) causing microscopically detectable alteration of normal cell morphology [8]: > 4 µmol/L
21 | CCCCNC(=O)c1nccnc1Cl [Compound 4, N-Butyl-3-chloropyrazine-2-carboxamide] | > 100 | −0.209 | 2.40 | 
22 | NNC(=O)c1ccncc1 [INH, Isoniazid, reference compound] | 0.1 to 0.39 |  |  | MIC M. tuberculosis [1, 11]: 0.1 to 0.39 µg/mL; MIC ([1]; conversion of the μg/mL value, read-out: MIC M. tuberculosis in molar units): 0.7 to 2.9 µM
23 | CCCCCCCCNC(=O)c1nccnc1Cl [Compound 8, 3-Chloro-N-octylpyrazine-2-carboxamide] | 50 | 0.702 | 4.26 | MIC Trichophyton mentagrophytes [5]: 62.5 µM (≈ 16.9 µg/mL); MIC [5]: 62.5 µM (≈ 16.9 µg/mL)
24 | CCNC(=O)c1nccnc1NC [Compound 17, N-Ethyl-3-(methylamino)pyrazine-2-carboxamide] | > 100 | −0.063 |  | PET-inhibiting activity (in words) [2]: not active
25 | CCCCCCCNc1nccnc1C(=O)NCC [Compound 23, N-Ethyl-3-(heptylamino)pyrazine-2-carboxamide] | 50 | 1.337 | 4.32 | MIC [5]: 125 µM (≈ 33 µg/mL); MIC [6]: 250 µM (≈ 66.1 µg/mL)
26 | CCCCCCNc1nccnc1C(N)=O [3-hexylamino-] |  |  |  | MIC [4]: 50 µg/mL (≈ 225 µM)
27 | CCCCCNc1nccnc1C(=O)NC [Compound 13, N-Methyl-3-(pentylamino)pyrazine-2-carboxamide] | 50 | 0.638 | 3.26 | MIC [5]: 250 µM (≈ 55.6 µg/mL)
28 | CCCCCCNC(=O)c1nccnc1Cl [Compound 6, 3-Chloro-N-hexylpyrazine-2-carboxamide] | 100 | 0.239 | 2.97 | MIC [5]: 250 µM (≈ 60.4 µg/mL)
29 | CCCCCCCCNC(=O)c1nccnc1NCCCCCCCC [Compound 30, N-Octyl-3-(octylamino)pyrazine-2-carboxamide] | > 100 | 2.981 | 3.12 | minimum compound concentration (MCC) causing microscopically detectable alteration of normal cell morphology [8]: 100 µmol/L
30 | CCCCCNC(=O)c1nccnc1Cl [Compound 5, 3-Chloro-N-pentylpyrazine-2-carboxamide] | > 100 | 0.012 | 2.86 | 
31 | CCCCCCNc1nccnc1C(=O)NCC [Compound 22, N-Ethyl-3-(hexylamino)pyrazine-2-carboxamide] | 50 | 1.094 | 4.11 | MIC [5]: 125 µM (≈ 31.3 µg/mL)
32 | CCCCCCCNC(=O)c1nccnc1Cl [Compound 7, 3-Chloro-N-heptylpyrazine-2-carboxamide] | 100 | 0.470 | 3.59 | MIC [5]: 125 µM (≈ 32 µg/mL)
33 | CCCCNc1nccnc1C(=O)NC [Compound 12, 3-(Butylamino)-N-methylpyrazine-2-carboxamide] | 100 | 0.401 | 3.28 | 
34 | CCCCNC(=O)c1nccnc1NCCCC [Compound 26, N-Butyl-3-(butylamino)pyrazine-2-carboxamide] | 50 | 1.077 | 3.69 | 
